Reference: patent US20150005320A9, “COMPOUNDS FOR INFLAMMATION AND IMMUNE-RELATED USES” (Synta Pharmaceuticals Corp., priority 2003, published 2015)
pIC50: −log10 of the molar value.

Legend:
IL-2 production [1] = test: Inhibition of IL-2 production in PHA-activated Jurkat cells (ELISA); assay type: cell-based; conditions: Homo sapiens, 20 h
Experimental: Jurkat cells were placed in a 96 well plate (0.5 million cells per well in 1% FBS medium) then test compounds of this invention were added at different concentrations. After 10 minutes, the cells were activated with PHA (final concentration 2.5 μg/mL) and incubated for 20 hours at 37° C. under CO2. The final volume was 200 μL. Following incubation, the cells were centrifuged and the supernatants collected and stored at −70° C. prior to assaying for IL-2 production. A commercial ELISA kit (IL-2 Eli-pair, Diaclone Research, Besancon, France) was used to detect production of IL-2, from which dose response curves were obtained. The IC50 value was calculated as the concentration at which 50% of maximum IL-2 production after stimulation was inhibited versus a non-stimulation control.

CRAC ion channel [2] = biological target: CRAC ion channel (Rattus norvegicus, UniProt Q5M848); test: Patch clamp inhibition of ICRAC current in RBL cells; assay type: cell-based; conditions: whole-cell patch clamp, read-out: IC50 (concentration which inhibits 50% of the ICRAC current)
Chain of CRAC ion channel (Rattus norvegicus, UniProt Q5M848) (Q5M848 whole entry, the tested form may be a part): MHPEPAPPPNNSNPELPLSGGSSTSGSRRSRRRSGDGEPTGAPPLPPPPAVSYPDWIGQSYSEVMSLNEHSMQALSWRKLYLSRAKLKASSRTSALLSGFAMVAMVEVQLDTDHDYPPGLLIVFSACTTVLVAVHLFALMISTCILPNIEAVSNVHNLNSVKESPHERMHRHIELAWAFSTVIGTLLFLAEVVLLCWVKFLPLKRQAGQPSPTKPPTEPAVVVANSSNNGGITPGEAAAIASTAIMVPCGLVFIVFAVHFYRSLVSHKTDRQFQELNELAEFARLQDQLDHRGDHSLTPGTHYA
Chain of CRAC ion channel (Rattus norvegicus, UniProt Q5M848) (P84903 23-685, further chain): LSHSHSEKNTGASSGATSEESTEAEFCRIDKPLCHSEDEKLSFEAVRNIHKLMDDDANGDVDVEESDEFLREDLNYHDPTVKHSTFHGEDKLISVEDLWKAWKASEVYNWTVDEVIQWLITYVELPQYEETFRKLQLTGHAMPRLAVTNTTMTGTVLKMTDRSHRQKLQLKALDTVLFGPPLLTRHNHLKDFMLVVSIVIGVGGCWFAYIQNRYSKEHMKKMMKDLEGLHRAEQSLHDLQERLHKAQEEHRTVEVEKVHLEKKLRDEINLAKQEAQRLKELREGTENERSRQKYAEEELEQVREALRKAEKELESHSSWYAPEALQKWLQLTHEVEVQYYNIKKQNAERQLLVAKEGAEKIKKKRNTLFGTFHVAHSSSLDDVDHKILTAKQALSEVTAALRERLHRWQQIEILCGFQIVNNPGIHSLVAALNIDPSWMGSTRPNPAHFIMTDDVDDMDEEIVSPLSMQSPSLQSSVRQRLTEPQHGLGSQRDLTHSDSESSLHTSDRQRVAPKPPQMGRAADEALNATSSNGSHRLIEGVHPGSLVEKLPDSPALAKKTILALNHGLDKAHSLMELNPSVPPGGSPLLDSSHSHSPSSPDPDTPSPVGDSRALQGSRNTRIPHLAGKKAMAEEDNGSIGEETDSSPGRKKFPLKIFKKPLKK
Experimental: In general, a whole cell patch clamp method was used to examine the effects of a compound of the invention on a channel that mediates Icrac. In such experiments, a baseline measurement was established for a patched cell. Then a compound to be tested was perfused (or puffed) to cells in the external solution and the effect of the compound on Icrac was measured. A compound that modulates Icrac (e.g., inhibits) is a compound that is useful in the invention for modulating CRAC ion channel activity.
Rat basophilic leukemia cells (RBL-2H3) were grown in DMEM media supplemented with 10% fetal bovine serum in an atmosphere of 95% air/5% CO2. Cells were seeded on glass coverslips 1-3 days before use.
Membrane currents of individual cells were recorded using the whole-cell configuration of the patch clamp technique with an EPC10 (HEKA Electronik, Lambrecht, Germany). Electrodes (2-5 MO in resistance) were fashioned from borosilicate glass capillary tubes (Sutter Instruments, Novato, Ca). The recordings were done at room temperature.
Cs-Glutamate 120 mM; CsCl 20 mM; CsBAPTA 10 mM; CsHEPES 10 mM; NaCl 8 mM; MgCl2 1 mM; IP3 0.02 mM; pH=7.4 adjusted with CsOH. (Shielded from light and kept on ice before experiment)
NaCl 138 mM; NaHEPES, 10 mM; CsCl 10 mM; CaCl2 10 mM; Glucose 5.5 mM; KC1-5.4 mM; KH2PO4 0.4 mM; Na2HPO4H2 0.3 mM at pH=7.4 adjusted with NaOH.
Each compound was diluted from a 10 mM stock in series using DMSO (10 μM, 3.2 μM, […], 316 nM, 100 nM, 32 nM). The final DMSO concentration was always kept at 0.1%.
ICRAC currents were monitored every 2 seconds using a 50 msec protocol, where the voltage was ramped from −100 mV to +100 mV. The membrane potential was held at 0 mV between the test ramps. In a typical experiment the peak inward currents would develop within 50-100 seconds. […]
The ICRAC current level was determined by measuring the inward current amplitude at −80 mV of the voltage ramp in an off-line analysis using MATLAB. The ICRAC current inhibition for each concentration was calculated using peak amplitude in the beginning of the experiment from the same cell. […]

CRAC ion channel [3] = test: Patch clamp inhibition of ICRAC current in primary T cells; assay type: cell-based; conditions: primary human T cells, FIG. 1
Experimental: Primary T cells were obtained from human whole blood samples by adding 100 μL of RosetteSep® human T cell enrichment cocktail to 2 mL of whole blood. The mixture was incubated for 20 minutes at room temperature, then diluted with an equal volume of PBS containing 2% FBS. The mixture was layered on top of RosetteSep® DM-L density medium and then centrifuged for 20 minutes at 1200 g at room temperature.
The enriched T cells were recovered from the plasma/density medium interface, then washed with PBS containing 2% FBS twice, and used in patch clamp experiments following the procedure described for RBL cells.

IL-2 production [4] = test: IL-2 production upon PMA/ionomycin stimulation in whole blood from dosed cynomolgus monkeys; assay type: in vivo; conditions: cynomolgus monkey, IV 5 mg/kg, 4 hours after dosing, FIG. 3
Experimental: (§1) 3 male non-naïve cynomolgus monkeys were fasted overnight prior to and for four (4) hours following each dose. Each monkey was given a single intravenous dose of the appropriate test compound followed by a 1 mL rinse of saline to flush the catheter. The dose was infused over one hour using calibrated syringe pumps. Following a one week washout, the same three monkeys were given a single oral gavage dose of the appropriate test compound dose formulation followed by a 10 mL flush with tap water. Following a second one week washout, the same three monkeys received a second oral dose of the appropriate test compound dose formulation followed by a 10 mL flush with tap water. Following a third one week washout, the same three monkeys received a third oral dose of the appropriate test compound dose formulation followed by a 10 mL flush with tap water. Prior to and at 1, 2, and 4 hours following each dose (measured from the start of dosing for IV doses), blood samples (3 mL/sample for Group 1 and 2 mL/sample for Groups 2 and 3) were drawn into tubes containing sodium heparin and stored at room temperature, and the concentration of the test compounds in each sample was measured. CsA was included as a positive control.

TNF-α production = TNF-α production upon PMA/ionomycin stimulation in whole blood from dosed cynomolgus monkeys; assay type: in vivo; conditions: cynomolgus monkey, IV 5 mg/kg, 4 hours after dosing, FIG. 4
Experimental: as §1

| IC50 (IL-2 production [1]; bins in nM) | Structure (SMILES) | pIC50 (CRAC ion channel [2]) | other results |
| --- | --- | --- | --- |
| 100 to 500 nM | Cc1nocc1C(=O)Nc1ccc(-c2cc(C(F)(F)F)ccc2C(F)(F)F)cc1 [Compound 48, 3-methylisoxazole-4-carboxylic acid (2′,5′-bis-trifluoromethyl-biphenyl-4-yl)-amide] | – | – |
| < 100 nM | COc1ccc(C)cc1-c1ccc(NC(=O)c2cccc(F)c2F)cc1 [Compound 46, N-(2′-methoxy-5′-methyl-biphenyl-4-yl)-2,3-difluorobenzamide] | – | – |
| – | O=C(Nc1ccc(-c2cc(C(F)(F)F)ccc2C(F)(F)F)cc1)c1ccnc2ccccc12 [Compound 57, quinoline-4-carboxylic acid (2′,5′-bis-trifluoromethyl-biphenyl-4-yl)-amide] | – | IC50 (IL-2 production [1]; bin printed with mixed units nM and μM): 500 to 1000 nM |
| – | COc1ccc(OC)c(-c2ccc(NC(=O)c3cccc(F)c3F)cc2)c1 [Compound 31, N-(2′,5′-Dimethoxy-biphenyl-4-yl)-2,3-difluoro-benzamide] | 7.00 | inhibition of ICRAC current in primary T cells compared with RBL cells (CRAC ion channel [3]): inhibits ICRAC current equally well in primary T cells as in RBL cells; IL-2 production after IV infusion (IL-2 production [4]): significantly inhibit; TNF-α production after IV infusion (TNF-α production): significantly inhibit |
| – | COc1ccc(Cl)cc1-c1ccc(NC(=O)c2cc(F)c(F)cc2F)cc1 [Compound 84, N-(2′-methoxy-5′-chloro-biphenyl-4-yl)-2,4,5-trifluorobenzamide] | 6.52 | – |
| – | Cc1nnsc1C(=O)Nc1ccc(-c2cc(C(F)(F)F)ccc2Cl)cc1 [Compound 27, 4-Methyl-[1,2,3]thiadiazole-5-carboxylic acid (2′-chloro-5′-trifluoromethyl-biphenyl-4-yl)-amide] | 6.40 | – |
